From patent US20250324971A1, “HERBICIDAL DERIVATIVES” (SYNGENTA CROP PROTECTION AG, priority 2022, published 2025) come the findings set out here.

Common to all, as to assay type: in vivo
The test system of assay [1] is Setaria faberi (SETFA). The assay is described as follows: Pre-Emergence Test (herbicidal, glasshouse pots). As to conditions: evaluated after 13 days, five-point scale.
For assay [2], the system named is Amaranthus retoflexus (AMARE). The assay is described as follows: Pre-Emergence Test (herbicidal, glasshouse pots). As to conditions: evaluated after 13 days, five-point scale.
Assay [3] deals with Amaranthus palmeri (AMAPA). Put plainly: Pre-Emergence Test (herbicidal, glasshouse pots). The note with it: evaluated after 13 days, five-point scale.
The test system of assay [4] is Zea mays (ZEAMX). Put plainly: Pre-Emergence Test (herbicidal, glasshouse pots). The note with it: evaluated after 13 days, five-point scale.
Assay [5] has as its system Ipomoea hederacea (IPOHE). The assay is described as follows: Pre-Emergence Test (herbicidal, glasshouse pots). As to conditions: evaluated after 13 days, five-point scale.
Assay [6] has as its system Echinochloa crus-galli (ECHCG). The assay is described as follows: Pre-Emergence Test (herbicidal, glasshouse pots). The note with it: evaluated after 13 days, five-point scale.
Assay [7] has as its system Amaranthus retoflexus (AMARE). The assay is described as follows: Post-Emergence Test (herbicidal, glasshouse pots). The note with it: evaluated after 13 days. The procedure: (§1) Seeds of a variety of test species are sown in standard soil in pots (Setaria faberi (SETFA), Ipomoea hederacea (IPOHE), Echinochloa crus-galli (ECHCG), (Amaranthus retoflexus (AMARE), Zea mays (ZEAMX), and Amaranthus palmeri (AMAPA)). After 8 days cultivation under controlled conditions in a glasshouse (at 24° C./16° C., day/night; 14 hours light; 65% humidity), the plants arm sprayed with an aqueous spray solution derived from the formulation of the technical active ingredient in acetone/water (50:50) solution containing 0.5% Tween 20 (polyoxyethylene sorbitan monolaurate, CAS RN 9005-84-5). Rate of application is shown in g/ha in the tables below. The test plants are then grown in a glasshouse under controlled conditions in a glasshouse (at 24° C./16° C., day/night; 14 hours light; 65% humidity) and watered twice daily. After 13 days the test is evaluated for the percentage damage caused to the plant. The biological activities are shown in the following table on a five-point scale (5=81-100%; 4=61-80%; 3=41-60%; 2=21-40%; 1=0-20%; -=not tested).

The test system of assay [8] is Zea mays (ZEAMX). The assay is described as follows: Post-Emergence Test (herbicidal, glasshouse pots). The note with it: evaluated after 13 days. As to the method: as §1
The subject of assay [9] is Setaria faberi (SETFA). The assay is described as follows: Post-Emergence Test (herbicidal, glasshouse pots). The note with it: evaluated after 13 days. As to the method: as §1
The test system of assay [10] is Echinochloa crus-galli (ECHCG). Put plainly: Post-Emergence Test (herbicidal, glasshouse pots). As to conditions: evaluated after 13 days. As to the method:
as §1

The test system of assay [11] is Amaranthus palmeri (AMAPA). The assay is described as follows: Post-Emergence Test (herbicidal, glasshouse pots). The note with it: evaluated after 13 days. As to the method: as §1
Assay [12] concerns Ipomoea hederacea (IPOHE). The assay is described as follows: Post-Emergence Test (herbicidal, glasshouse pots). The note with it: evaluated after 13 days. As to the method:
as §1

Take `CCn1c(Oc2ccn(C)n2)cc(=O)c(C(=O)O)c1-c1ccc(Cl)c(Cl)c1` [Compound 37, 2-(3,4-dichlorophenyl)-1-ethyl-6-(1-methylpyrazol-3-yl)oxo-4-oxo-pyridine-3-carboxylic acid]: the “percentage damage caused to the plant, SETFA” value in assay [1] (rate 62.5 g/ha) is 5 (5=81-100%). Besides, the “percentage damage caused to the plant, AMARE” value in [2] (rate 62.5 g/ha) is listed as 2 (2=21-40%). Also, the “percentage damage caused to the plant, AMAPA” value in assay [3] (rate 62.5 g/ha) was 2 (2=21-40%). Moreover, the “percentage damage caused to the plant, ZEAMX” value in [4] (rate 62.5 g/ha) is listed as 3 (3=41-60%). Moreover, the “percentage damage caused to the plant, IPHOE” value in [5] (rate 62.5 g/ha) is 3 (3=41-60%). In addition, the “percentage damage caused to the plant, ECHCG” value in assay [6] (rate 62.5 g/ha) was 4 (4=61-80%). For the same compound, in assay [7] (rate 62.5 g/ha), the “Post-Emergence Test AMARE percentage damage (five-point scale)” value was 4 (4=61-80%). In addition, in assay [8] (rate 62.5 g/ha), the “Post-Emergence Test ZEAMX percentage damage (five-point scale)” value is given as 4 (4=61-80%). Moreover, the “Post-Emergence Test SETFA percentage damage (five-point scale)” value in assay [9] (rate 62.5 g/ha) is given as 4 (4=61-80%). For the same compound, the “Post-Emergence Test ECHCG percentage damage (five-point scale)” value in assay [10] (rate 62.5 g/ha) is 4 (4=61-80%). The “Post-Emergence Test AMAPA percentage damage (five-point scale)” value in [11] (rate 62.5 g/ha) is recorded as 4 (4=61-80%). For the same compound, the “Post-Emergence Test IPHOE percentage damage (five-point scale)” value in assay [12] (rate 62.5 g/ha) is on record as 3 (3=41-60%).

With `C/C=C(\C)COc1cc(=O)c(C(=O)O)c(-c2ccc(Cl)c(Cl)c2)n1CC` [Compound 63, 2-(3,4-dichlorophenyl)-1-ethyl-6-[(E)-2-methylbut-2-enoxy]-4-oxo-pyridine-3-carboxylic acid], the “percentage damage caused to the plant, SETFA” value in assay [1] (rate 250 g/ha) worked out at 0. For the same compound, in assay [2] (rate 250 g/ha), the “percentage damage caused to the plant, AMARE” value is reported as 1 (1=0-20%). Besides, the “percentage damage caused to the plant, AMAPA” value in [3] (rate 250 g/ha) is on record as 0. In addition, the “percentage damage caused to the plant, ZEAMX” value in assay [4] (rate 250 g/ha) came out at 0. In addition, the “percentage damage caused to the plant, IPHOE” value in [5] (rate 250 g/ha) is 2 (2=21-40%). Moreover, the “percentage damage caused to the plant, ECHCG” value in assay [6] (rate 250 g/ha) was found to be 0. Besides, the “Post-Emergence Test AMARE percentage damage (five-point scale)” value in assay [7] (rate 250 g/ha) was 2 (2=21-40%). Moreover, in assay [8] (rate 250 g/ha), the “Post-Emergence Test ZEAMX percentage damage (five-point scale)” value is given as 1 (1=0-20%). For the same compound, in assay [9] (rate 250 g/ha), the “Post-Emergence Test SETFA percentage damage (five-point scale)” value amounted to 0. Besides, the “Post-Emergence Test ECHCG percentage damage (five-point scale)” value in assay [10] (rate 250 g/ha) is 1 (1=0-20%). In addition, the “Post-Emergence Test AMAPA percentage damage (five-point scale)” value in [11] (rate 250 g/ha) is reported as 1 (1=0-20%). Moreover, in [12] (rate 250 g/ha), the “Post-Emergence Test IPHOE percentage damage (five-point scale)” value was 2 (2=21-40%).

For the compound `CCn1c(Oc2ccc(C)c(F)c2)cc(=O)c(C(=O)O)c1-c1ccc(Cl)c(Cl)c1` [Compound 41, 2-(3,4-dichlorophenyl)-1-ethyl-6-(3-fluoro-4-methyl-phenoxy)-4-oxo-pyridine-3-carboxylic acid], the “percentage damage caused to the plant, SETFA” value in [1] (rate 250 g/ha) is given as 0. In addition, the “percentage damage caused to the plant, AMARE” value in assay [2] (rate 250 g/ha) was 1 (1=0-20%). The “percentage damage caused to the plant, AMAPA” value in [3] (rate 250 g/ha) was 0. For the same compound, in assay [4] (rate 250 g/ha), the “percentage damage caused to the plant, ZEAMX” value is listed as 0. Moreover, the “percentage damage caused to the plant, IPHOE” value in assay [5] (rate 250 g/ha) was 2 (2=21-40%). In assay [6] (rate 250 g/ha), the “percentage damage caused to the plant, ECHCG” value was found to be 0. Also, the “Post-Emergence Test AMARE percentage damage (five-point scale)” value in assay [7] (rate 250 g/ha) was 2 (2=21-40%). For the same compound, the “Post-Emergence Test ZEAMX percentage damage (five-point scale)” value in assay [8] (rate 250 g/ha) amounted to 0. The “Post-Emergence Test SETFA percentage damage (five-point scale)” value in [9] (rate 250 g/ha) is 1 (1=0-20%). Moreover, the “Post-Emergence Test ECHCG percentage damage (five-point scale)” value in [10] (rate 250 g/ha) is given as 1 (1=0-20%). The “Post-Emergence Test AMAPA percentage damage (five-point scale)” value in assay [11] (rate 250 g/ha) is on record as 2 (2=21-40%). The “Post-Emergence Test IPHOE percentage damage (five-point scale)” value in assay [12] (rate 250 g/ha) was 3 (3=41-60%).

For the compound `CCn1c(Nc2ccc(F)cc2)cc(=O)c(C(=O)O)c1-c1ccc(Cl)c(Cl)c1` [Compound 9, 2-(3,4-dichlorophenyl)-1-ethyl-6-(4-fluoroanilino)-4-oxo-pyridine-3-carboxylic acid], the “percentage damage caused to the plant, SETFA” value in assay [1] (rate 250 g/ha) was 0. Also, the “percentage damage caused to the plant, AMARE” value in assay [2] (rate 250 g/ha) is 0. For the same compound, the “percentage damage caused to the plant, AMAPA” value in assay [3] (rate 250 g/ha) was 1 (1=0-20%). Also, in [4] (rate 250 g/ha), the “percentage damage caused to the plant, ZEAMX” value is 0. For the same compound, the “percentage damage caused to the plant, IPHOE” value in [5] (rate 250 g/ha) turned out to be 0. Also, the “percentage damage caused to the plant, ECHCG” value in assay [6] (rate 250 g/ha) came to 0. The “Post-Emergence Test AMARE percentage damage (five-point scale)” value in assay [7] (rate 250 g/ha) is on record as 2 (2=21-40%). In assay [8] (rate 250 g/ha), the “Post-Emergence Test ZEAMX percentage damage (five-point scale)” value is on record as 0. For the same compound, the “Post-Emergence Test ECHCG percentage damage (five-point scale)” value in assay [10] (rate 250 g/ha) was 1 (1=0-20%). Further, the “Post-Emergence Test AMAPA percentage damage (five-point scale)” value in [11] (rate 250 g/ha) is listed as 1 (1=0-20%). For the same compound, the “Post-Emergence Test IPHOE percentage damage (five-point scale)” value in [12] (rate 250 g/ha) is listed as 4 (4=61-80%).
